Source: patent US11008317B2, “Triazolopyridine inhibitors of myeloperoxidase and/or EPX” (priority 2016, dated 2021)

Legend:
[1] = target: T1, myeloperoxidase (Homo sapiens, UniProt P05164); experiment: MPO Peroxidation Assay (Amplex Red Assay); format: biochemical; conditions: potency range class, read-out: Amplex Red Assay IC50 value
T1 sequence (P05164 49-745): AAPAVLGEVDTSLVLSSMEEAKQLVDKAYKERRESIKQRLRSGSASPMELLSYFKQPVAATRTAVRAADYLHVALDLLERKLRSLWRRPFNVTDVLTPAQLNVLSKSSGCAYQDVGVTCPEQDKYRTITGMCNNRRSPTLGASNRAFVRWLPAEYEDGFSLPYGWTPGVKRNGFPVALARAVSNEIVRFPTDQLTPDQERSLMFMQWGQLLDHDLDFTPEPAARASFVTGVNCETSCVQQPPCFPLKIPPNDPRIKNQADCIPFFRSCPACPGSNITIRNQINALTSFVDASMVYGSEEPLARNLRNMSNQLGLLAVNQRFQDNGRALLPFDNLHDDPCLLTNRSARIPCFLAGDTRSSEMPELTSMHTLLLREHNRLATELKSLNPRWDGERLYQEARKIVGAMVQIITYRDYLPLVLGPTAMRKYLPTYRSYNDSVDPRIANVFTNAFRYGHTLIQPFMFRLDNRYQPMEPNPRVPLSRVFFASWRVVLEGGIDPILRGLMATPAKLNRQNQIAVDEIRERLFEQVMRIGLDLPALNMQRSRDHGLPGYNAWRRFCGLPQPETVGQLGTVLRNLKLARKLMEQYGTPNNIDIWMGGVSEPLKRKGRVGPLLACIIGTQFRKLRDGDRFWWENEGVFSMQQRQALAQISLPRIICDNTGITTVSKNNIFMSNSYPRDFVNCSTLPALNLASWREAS

[2] = target: T1, myeloperoxidase; experiment: MPO Chlorination Assay (APF Assay); format: biochemical; conditions: potency range class, read-out: APF Assay IC50 value

Row | Structure (SMILES) | IC50 [1] [nM] | IC50 [2] [nM]
1 | Nc1cc(C(CCN[C@@H]2CCc3cc(F)ccc32)c2ccccc2)c2nn[nH]c2n1 (stereo partly drawn) [Example 61, 7-(3-{[(1R)-5-fluoro-2,3-dihydro-1H-inden-1-yl]amino}-1-phenylpropyl)-3H-[1,2,3]triazolo[4,5-b]pyridin-5-amine] | 101 to 999 | 101 to 999
2 | Nc1cc(C(CCNCc2ccnc(C(F)(F)F)c2)c2ccccc2)c2nn[nH]c2n1 (stereo not shown) [Example 62, 7-[1-phenyl-3-({[2-(trifluoromethyl)pyridin-4-yl]methyl}amino)propyl]-3H-[1,2,3]triazolo[4,5-b]pyridin-5-amine] | 101 to 999 | 101 to 999
3 | Nc1cc(C(CCN[C@@H]2CCc3c(Cl)cccc32)c2ccccc2)c2nn[nH]c2n1 (stereo partly drawn) [Example 65, 7-(3-{[(1R)-4-chloro-2,3-dihydro-1H-inden-1-yl]amino}-1-phenylpropyl)-3H-[1,2,3]triazolo[4,5-b]pyridin-5-amine] | 101 to 999 | 101 to 999
4 | NC(=O)c1cccc(CNCCC(c2ccccc2)c2cc(N)nc3[nH]nnc23)c1 (stereo not shown) [Example 70, 3-{[(3-{5-amino-3H-[1,2,3]triazolo[4,5-b]pyridin-7-yl}-3-phenylpropyl)amino]methyl}hbenzamide] | 101 to 999 | 101 to 999
5 | CN(C)C(=O)c1cccc(CNCCC(c2ccccc2)c2cc(N)nc3[nH]nnc23)c1 (stereo not shown) [Example 72, 3-{[(3-{5-amino-3H-[1,2,3]triazolo[4,5-b]pyridin-7-yl}-3-phenylpropyl)amino]methyl}-N,N-dimethylbenzamide] | 101 to 999 | 101 to 999
6 | Nc1cc(C(CCN[C@H]2CCc3c(Cl)cccc32)c2ccccc2)c2nn[nH]c2n1 (stereo partly drawn) [Example 73, 7-(3-{[(1S)-4-chloro-2,3-dihydro-1H-inden-1-yl]amino}-1-phenylpropyl)-3H-[1,2,3]triazolo [4,5-b]pyridin-5-amine] | 1000 to 10000 | 1 to 100
7 | Nc1cc(C(CCNCc2ccccc2Cc2ccc3c(c2)CCCC3)c2ccccc2)c2nn[nH]c2n1 (stereo not shown) [Example 78, 7-{1-phenyl-3-[({2-[(5,6,7,8-tetrahydronaphthalen-2-yl)methyl]phenyl}methyl)amino]propyl}-3H-[1,2,3] triazolo[4,5-b] pyridin-5-amine] | 101 to 999 | 1 to 100
8 | CC1(C)C[C@@H](NCCC(c2ccccc2)c2cc(N)nc3[nH]nnc23)c2ccccc21 (stereo partly drawn) [Example 85, 7-(3-{[(1R)-3,3-dimethyl-2,3-dihydro-1H-inden-1-yl]amino}-1-phenylpropyl)-3H-[1,2,3]triazolo [4,5-b]pyridin-5-amine] | 101 to 999 | 1 to 100
9 | Nc1cc(C(CCNCc2ccccc2OC(F)(F)F)c2ccccc2)c2nn[nH]c2n1 (stereo not shown) [Example 89, 7-[1-phenyl-3-({[2-(trifluoromethoxy)phenyl]methyl}amino)propyl]-3H-[1,2,3] triazolo[4,5-b] pyridin-5-amine] | 1000 to 10000 | 101 to 999
10 | Nc1cc(C(CCNC2CCN(c3ccccc3)CC2)c2ccccc2)c2nn[nH]c2n1 (stereo not shown) [Example 92, N-(3-{5-amino-3H-[1,2,3]triazolo [4,5-b]pyridin-7-yl}-3-phenylpropyl)-1-phenylpiperidin-4-amine] | 1000 to 10000 | 1 to 100
11 | CC(C)(C)C1CCC(NCCC(c2ccccc2)c2cc(N)nc3[nH]nnc23)CC1 (stereo not shown) [Example 96, 7-{3-[(4-tert-butylcyclohexyl)amino]-1-phenylpropyl}-3H-[1,2,3]triazolo[4,5-b] pyridin-5-amine] | 1000 to 10000 | 101 to 999
12 | CC(C)(CNCCC(c1ccccc1)c1cc(N)nc2[nH]nnc12)c1ccccc1 (stereo not shown) [Example 104, 7-{3-[(2-methyl-2-phenylpropyl)amino]-1-phenylpropyl}-3H-[1,2,3]triazolo[4,5-b] pyridin-5-amine] | 101 to 999 | 101 to 999
13 | Nc1cc(C(CCNC2CCC(c3cccc(Cl)c3)CC2)c2ccccc2)c2nn[nH]c2n1 (stereo not shown) [Example 105, 7-(3-{[4-(3-chlorophenyl)cyclohexyl]amino}-1-phenylpropyl)-3H-[1,2,3]triazolo[4,5-b]pyridin-5-amine] | 1000 to 10000 | 1 to 100
14 | Nc1cc(C(CCNCCCc2ccccc2)c2ccccc2)c2nn[nH]c2n1 (stereo not shown) [Example 106, 7-{1-phenyl-3-[(3-phenylpropyl)amino]propyl}-3H-[1,2,3] triazolo[4,5-b] pyridin-5-amine] | 101 to 999 | 101 to 999
15 | Nc1cc(C(CCN[C@H]2CC[C@@H](c3ccc(Cl)cc3)CC2)c2ccccc2)c2nn[nH]c2n1 (stereo partly shown) [Example 107, 7-(1-phenyl-3-{[(1s,4s)-4-(4-chlorophenyl)cyclohexyl]amino}propyl)-3H-[1,2,3] triazolo[4,5-b] pyridin-5-amine] | 101 to 999 | 1 to 100
16 | Nc1cc(C(CCN[C@H]2CC[C@H](c3ccc(Cl)cc3)CC2)c2ccccc2)c2nn[nH]c2n1 (stereo partly drawn) [Example 108, 7-(1-phenyl-3-{[(trans)-4-(4-chlorophenyl)cyclohexyl]amino}propyl)-3H-[1,2,3] triazolo[4,5-b] pyridin-5-amine] | 101 to 999 | 1 to 100
17 | Nc1cc(C(CCNCCc2ccccc2)c2ccccc2)c2nn[nH]c2n1 (stereo not shown) [Example 109, 7-{1-phenyl-3-[(2-phenylethyl)amino]propyl}-3H-[1,2,3] triazolo[4,5-b] pyridin-5-amine] | 101 to 999 | 101 to 999
18 | CC1(NCCC(c2ccccc2)c2cc(N)nc3[nH]nnc23)CCc2ccccc21 (stereo not shown) [Example 110, 7-{3-[(1-methyl-2,3-dihydro-1H-inden-1-yl)amino]-1-phenylpropyl}-3H-[1,2,3]triazolo[4,5-b]pyridin-5-amine] | 101 to 999 | 101 to 999

The remaining lines, values ahead:

Row | IC50 [1] [nM] | IC50 [2] [nM] | Structure (SMILES)
19 | 101 to 999 | 1 to 100 | Nc1cc(C(CCNCc2ccccc2Cc2ccccc2)c2ccccc2)c2nn[nH]c2n1 (stereo not shown) [Example 63, 7-(3-{[(2-benzylphenyl)methyl]amino}-1-phenylpropyl)-3H-[1,2,3]triazolo[4,5-b]pyridin-5-amine]
20 | 101 to 999 | 1 to 100 | Nc1cc(C(CCNCc2ccccc2Oc2ccccc2)c2ccccc2)c2nn[nH]c2n1 (stereo not shown) [Example 74, 7-(3-{[(2-phenoxyphenyl)methyl]amino}-1-phenylpropyl)-3H-[1,2,3]triazolo[4,5-b]pyridin-5-amine]
21 | 101 to 999 | 1 to 100 | Nc1cc(C(CCN[C@H]2C[C@@H](c3ccccc3)C2)c2ccccc2)c2nn[nH]c2n1 (stereo partly shown) [Example 76, 7-(1-phenyl-3-{[(1s,3s)-3-phenylcyclobutyl]amino}propyl)-3H-[1,2,3]triazolo[4,5-b]pyridin-5-amine]
22 | 1000 to 10000 | 1 to 100 | Nc1cc(C(CCN[C@H]2C[C@H](c3ccccc3)Cc3ccccc32)c2ccccc2)c2nn[nH]c2n1 (stereo partly drawn) [Example 82, 7-(1-phenyl-3-{[(1S,3R)-3-phenyl-1,2,3,4-tetrahydronaphthalen-1-yl]amino}propyl)-3H-[1,2,3]triazolo [4,5-b]pyridin-5-amine]
23 | 1000 to 10000 | 1 to 100 | Nc1cc(C(CCN[C@@H]2C[C@H](c3ccccc3)Cc3ccccc32)c2ccccc2)c2nn[nH]c2n1 (stereo partly drawn) [Example 83, 7-(1-phenyl-3-{[(1R,3R)-3-phenyl-1,2,3,4-tetrahydronaphthalen-1-yl]amino}propyl)-3H-[1,2,3]triazolo [4,5-b]pyridin-5-amine]
24 | 1000 to 10000 | 101 to 999 | Nc1cc(C(CCN[C@@H]2C[C@@H](c3ccccc3)Cc3ccccc32)c2ccccc2)c2nn[nH]c2n1 (stereo partly drawn) [Example 84, 7-(1-phenyl-3-{[(1R,3S)-3-phenyl-1,2,3,4-tetrahydronaphthalen-1-yl]amino}propyl)-3H-[1,2,3]triazolo [4,5-b]pyridin-5-amine]
25 | 101 to 999 | 1 to 100 | CC1(C)C[C@H](NCCC(c2ccccc2)c2cc(N)nc3[nH]nnc23)c2ccccc21 (stereo partly drawn) [Example 87, 7-(3-{[(1S)-3,3-dimethyl-2,3-dihydro-1H-inden-1-yl]amino}-1-phenylpropyl)-3H-[1,2,3]triazolo [4,5-b]pyridin-5-amine]
26 | 101 to 999 | 101 to 999 | CC1C[C@@H](NCCC(c2ccccc2)c2cc(N)nc3[nH]nnc23)c2ccccc21 (stereo partly drawn) [Example 88, 7-(3-{[(1R)-3-methyl-2,3-dihydro-1H-inden-1-yl]amino}-1-phenylpropyl)-3H-[1,2,3]triazolo[4,5-b]pyridin-5-amine]
27 | 101 to 999 | 1 to 100 | CC1C[C@H](NCCC(c2ccccc2)c2cc(N)nc3[nH]nnc23)c2ccccc21 (stereo partly drawn) [Example 95, 7-(3-{[(1S)-3-methyl-2,3-dihydro-1H-inden-1-yl]amino}-1-phenylpropyl)-3H-[1,2,3]triazolo[4,5-b]pyridin-5-amine]
28 | 101 to 999 | 1 to 100 | CC1C[C@@H](NCCC(c2ccccc2)c2cc(N)nc3[nH]nnc23)c2ccccc21 (stereo partly drawn) [Example 98, 7-(3-{[(1R)-3-methyl-2,3-dihydro-1H-inden-1-yl]amino}-1-phenylpropyl)-3H-[1,2,3]triazolo [4,5-b] pyridin-5-amine]
29 | 101 to 999 | 1 to 100 | CC1C[C@H](NCCC(c2ccccc2)c2cc(N)nc3[nH]nnc23)c2ccccc21 (stereo partly drawn) [Example 99, 7-(3-{[(1S)-3-methyl-2,3-dihydro-1H-inden-1-yl]amino}-1-phenylpropyl)-3H-[1,2,3]triazolo[4,5-b] pyridin-5-amine]
